According to publication PMC6522510 (Nature Communications, 2019):
Counter-ions that a name gives are not always drawn. Like-named read-outs stand apart in the source and are kept apart here.

Columns and labels:
Parameters in all cases: species or system AML cell lines (8); Primary HTS, single concentration about 10 uM, Cell Titer Glo viability; log10 luminescence, per cent inhibition relative to cycloheximide control
Conditions in all cases: 72 h, relative to cycloheximide control, log10 luminescence, inhibitor
CHRF288-11 = system: CHRF288-11
CMK = system: CMK
CMS = system: CMS
M07e = system: M07e
ML-2 = system: ML-2
MOLM-13 = system: MOLM-13
MV4-11 = system: MV4-11
U937 = system: U937

Structure (SMILES)	CHRF288-11 %inh (CHRF288-11; CHRF288-11 %inh, 10 µM)	CMK %inh (CMK; CMK %inh, 10 µM)	CMS %inh (CMS; CMS %inh, 10 µM)	M07e %inh (M07e; M07e %inh, 10 µM)	ML-2 %inh (ML-2; ML-2 %inh, 10 µM)	MOLM-13 %inh (MOLM-13; MOLM-13 %inh, 10 µM)	MV4-11 %inh (MV4-11; MV4-11 %inh, 10 µM)	U937 %inh (U937; U937 %inh, 10 µM)	CHRF288-11 %inh (CHRF288-11)	CMK %inh (CMK)	CMS %inh (CMS)	M07e %inh (M07e)	ML-2 %inh (ML-2)	MOLM-13 %inh (MOLM-13)	MV4-11 %inh (MV4-11)	U937 %inh (U937)
C[C@H](CS)C(=O)N1CCC[C@H]1C(=O)O [SJ000286908-7, CAPTOPRIL]	0.04975%	-2.127%	0.1894%	3.365%	-0.2844%	2.932%	2.877%	2.172%								
C[C@H](CS)C(=O)N1CCC[C@H]1C(=O)O [SJ000286908-8, CAPTOPRIL]	4.869%	0.6591%	-1.291%	-2.045%	-1.462%	0.1339%	-2.616%	-1.359%								
C[C@H](CS)C(=O)N1CCC[C@H]1C(=O)O [SJ000286908-9, CAPTOPRIL]	-5.11%	-4.021%	0.9516%	0.8569%	-0.6374%	-1.689%	1.577%	-2.673%								
C[C@H](CS)C(=O)N1CCC[C@H]1C(=O)O [SJ000286908-10, CAPTOPRIL]	-3.972%	3.343%	-3.33%	-1.533%	-0.772%	0.8092%	-0.07613%	51.26%								
C[C@H](CS)C(=O)N1CCC[C@H]1C(=O)O [SJ000286908-11, CAPTOPRIL]	-3.474%	-6.202%	-1.329%	0.3888%	-1.011%	1.337%	-2.697%	-18.23%								
C[C@H](CCC(=O)O)[C@H]1CC[C@H]2[C@@H]3CC[C@@H]4C[C@H](O)CC[C@]4(C)[C@H]3CC[C@]12C [SJ000286918-3, LITHOCHOLIC ACID]									7.532%	-0.09844%	2.61%	1.09%	1.903%	2.496%	1.619%	0.7056%
CC1(C)O[C@@H]2C[C@H]3[C@@H]4CCC5=CC(=O)CC[C@]5(C)[C@@]4(F)[C@@H](O)C[C@]3(C)[C@]2(C(=O)CCl)O1 [SJ000286948-3, HALCINONIDE]									0.4115%	7.614%	6.83%	-3.04%	2.814%	15.68%	4.793%	10.5%
CCCC(CCC)C(=O)O [SJ000287008-5, VALPROATE SODIUM | VALPROIC ACID SODIUM | DIVALPROEX SODIUM | SODIUM VALPROATE | ABBOTT-44090 | NIK-313 | NIK-317 | VALPROATE SODIUM | VALPROIC ACID SODIUM SALT | | SODIUM VALPROATE | VALPROATE SODIUM | VALPROIC ACID SODIUM SALT | ABBOTT-44090 | NIK-313 | NIK-317 | | SODIUM VALPROATE | VALPROIC ACID SODIUM SALT (SODIUM VALPROATE)]	8.896%	-3.296%	1.675%	-4.206%	0.7854%	-1.216%	-0.02212%	-1.54%								
CCCC(CCC)C(=O)O [SJ000287008-6, VALPROATE SODIUM | VALPROIC ACID SODIUM | DIVALPROEX SODIUM | SODIUM VALPROATE | ABBOTT-44090 | NIK-313 | NIK-317 | VALPROATE SODIUM | VALPROIC ACID SODIUM SALT | | SODIUM VALPROATE | VALPROATE SODIUM | VALPROIC ACID SODIUM SALT | ABBOTT-44090 | NIK-313 | NIK-317 | | SODIUM VALPROATE | VALPROIC ACID SODIUM SALT (SODIUM VALPROATE)]	0.5614%	-3.672%	-1.126%	-0.5439%	-1.422%	-2.019%	-1.147%	-3.41%								
CC1(C)O[C@@H]2C[C@H]3[C@@H]4C[C@H](F)C5=CC(=O)C=C[C@]5(C)[C@@]4(F)[C@@H](O)C[C@]3(C)[C@]2(C(=O)CO)O1 [SJ000287016-2, FLUOCINOLONE ACETONIDE]									4.658%	-1.286%	9.034%	-0.198%	2.188%	1.204%	1.404%	7.141%
C[C@]12CCC(=O)C=C1CC[C@@H]1[C@@H]2C(=O)C[C@@]2(C)[C@H]1CC[C@]2(O)C(=O)CO [SJ000287023-7, CORTISONE]									8.551%	-2.132%	-0.2521%	-0.4313%	-0.1775%	-2.413%	-0.1807%	-1.735%
CCOC(=O)[C@H](CCc1ccccc1)N[C@@H](C)C(=O)N1[C@H](C(=O)O)C[C@@H]2CCC[C@@H]21 [SJ000287048-3]									-4.815%	1.362%	-0.1854%	-2.965%	-0.556%	-1.2%	3.659%	1.846%
C[C@@H]1C[C@H]2[C@@H]3C[C@H](F)C4=CC(=O)C=C[C@]4(C)[C@@]3(F)[C@@H](O)C[C@]2(C)[C@@]1(O)C(=O)CO [SJ000287102-3, FLUMETHASONE]									4.435%	4.189%	2.822%	-0.252%	1.1%	0.6987%	-0.9154%	4.356%
CC1(C)O[C@@H]2C[C@H]3[C@@H]4C[C@H](F)C5=CC(=O)CC[C@]5(C)[C@H]4[C@@H](O)C[C@]3(C)[C@]2(C(=O)CO)O1 [SJ000287138-3, FLURANDRENOLIDE]									7.802%	-0.8734%	0.1237%	-0.6056%	-1.728%	-1.421%	-1.501%	5.849%
CC(C)(C)c1ccc(C(O)CCCN2CCC(C(O)(c3ccccc3)c3ccccc3)CC2)cc1 (centres unmarked) [SJ000287189-5, TERFENADINE]									1.988%	-4.344%	-3.743%	132.8%	1.525%	-1.727%	1.084%	0.7714%
NCC1(CC(=O)O)CCCCC1 [SJ000287210-5, GABAPENTIN]									-2.43%	0.3533%	-2.432%	-2.786%	-3.023%	0.8376%	5.813%	-1.755%
